Measurements: PubChem BioAssay (NCI)
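All cell lines were grown in 96-well plates and treated with compound for 48 hours. GI50 is the concentration that inhibits growth by half. TGI is the concentration that stops growth completely.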

Experiments:
Test in all cases: inhibition of tumour cell growth, NCI panel, 48 h
[1] = test system: OVCAR-5 ovarian
[2] = test system: LOX IMVI melanoma
[3] = test system: NCI-H23 lung
[4] = test system: MALME-3M melanoma
[5] = test system: UO-31 renal
[6] = test system: TK-10 renal
[7] = test system: HOP-62 NSCLC
[8] = test system: K-562 leukemia
[9] = test system: UACC-62 melanoma
[10] = test system: SF-268 CNS

Row | SMILES | TGI [1] [µM] | TGI [2] [µM] | TGI [3] [µM] | TGI [4] [µM] | TGI [5] [µM] | TGI [6] [µM] | TGI [7] [µM] | TGI [8] [µM] | TGI [9] [µM] | TGI [10] [µM] | GI50 [1] [µM] | GI50 [2] [µM] | GI50 [3] [µM] | GI50 [4] [µM] | GI50 [5] [µM] | GI50 [6] [µM] | GI50 [7] [µM] | GI50 [8] [µM] | GI50 [9] [µM] | GI50 [10] [µM]
1 | COc1c2c(c3c(c1CCC(=O)O)OC(C)(C)C=C3)OC(C)(C)C=C2 | > 100 | > 100 | > 100 | > 100 | > 100 | > 100 | > 100 | > 100 | > 100 | > 100 | – | – | – | – | – | – | – | – | – | –
2 | COC1(C(=O)N[C@@H](C)c2ccc(-n3cc(F)cn3)nc2)CCC(c2nc(C)cc(Nc3cc(C)[nH]n3)n2)CC1 (stereo not given in full) | 12.5 | 2.54 | 19.9 | 21.7 | 1.99 | 8.97 | 14.6 | > 100 | 17.4 | 8.04 | 1.4 | 0.714 | 2.6 | 5.87 | 0.436 | 1.96 | 1.34 | 3.27 | 4.14 | 0.811
3 | COC(=O)/C=C/C=C(c1ccccc1)c1ccccc1 | > 100 | 21.7 | > 100 | 30.4 | 37.8 | > 100 | 40.9 | > 100 | 25.4 | > 100 | 14 | 5.87 | 16.3 | 4.23 | 3.27 | 20.3 | 4.14 | 4 | 5.43 | 4.63
4 | O=C(CC(=O)CC(O)(C(F)(F)F)C(F)(F)F)CC(O)(C(F)(F)F)C(F)(F)F | > 10 | > 10 | > 10 | > 10 | > 10 | > 10 | > 10 | > 10 | > 10 | > 10 | – | – | – | – | – | – | – | – | – | –
5 | CNC(=O)n1ccc2cc(Oc3ccnc(NC(=O)c4ccc(C5CCN(CCO)CC5)cc4)c3)c(OCCOC)cc21 | 22.7 | 3.7 | 24.4 | 3.15 | 33.2 | 29.6 | 18.6 | 10.6 | 17.5 | 23 | 8.43 | 1.77 | 10.5 | 1.62 | 16.5 | 15.3 | 4.56 | 0.529 | 5.23 | 10.2
6 | Nc1c(C(=O)Nc2cccc([N+](=O)[O-])c2)sc2nc3c(cc12)C(O)CCC3 (stereo not given) | > 100 | > 100 | > 100 | > 100 | > 100 | > 100 | > 100 | > 100 | > 100 | > 89.8 | > 100 | 7.61 | > 100 | 26.9 | > 100 | 15.9 | 6.66 | 0.852 | 5.93 | 9.62
7 | CCCCCCCCCc1cc(=O)c2ccc(OCc3ccccc3)cc2o1 | > 100 | > 100 | > 100 | > 100 | > 100 | > 100 | > 100 | > 100 | > 100 | > 100 | – | – | – | – | – | – | – | – | – | –
